Experimental data published in ChEMBL document CHEMBL1201862, “PubChem BioAssay data set” (2004).
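Method: 48-hour compound exposure of cells in 96-well plates, five concentrations, linear interpolation of endpoints. At the GI50, growth is halved.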 Active and inactive are the calls of the source. Rule as the data show it: active = GI50 up to about 1.1 µM and inactive = higher.

Tests used:
Experiment in all cases: NCI anticancer screen, dose series, 48 h
[1] = system: IGROV-1
[2] = system: SR
[3] = system: Hs-578T
[4] = system: K562
[5] = system: PC-3
[6] = system: MOLT-4
[7] = system: SW-620
[8] = system: MDA-MB-435
[9] = system: OVCAR-5
[10] = system: SK-MEL-28
[11] = system: SK-MEL-2
[12] = system: OVCAR-8
[13] = system: SNB-19
[14] = system: UACC-257
[15] = system: SF-295
[16] = system: KM12
[17] = system: HT-29
[18] = system: NCI-H460
[19] = system: NCI-H226
[20] = system: MDA-N

| Structure (SMILES) | GI50 [1] | GI50 [2] | GI50 [3] | GI50 [4] | GI50 [5] | GI50 [6] | GI50 [7] | GI50 [8] | GI50 [9] | GI50 [10] | GI50 [11] | GI50 [12] | GI50 [13] | GI50 [14] | GI50 [15] | GI50 [16] | GI50 [17] | GI50 [18] | GI50 [19] | GI50 [20] |
| --- | --- | --- | --- | --- | --- | --- | --- | --- | --- | --- | --- | --- | --- | --- | --- | --- | --- | --- | --- | --- |
| O=c1nc(Oc2c(F)c(F)c(F)c(F)c2F)ccn1C1OC(CO)C(O)C1O (centres undefined) | > 100 µM (inactive) | 58.1 µM (inactive) | > 100 µM (inactive) | > 100 µM (inactive) | > 100 µM (inactive) | 43.9 µM (inactive) | > 100 µM (inactive) | > 100 µM (inactive) | > 100 µM (inactive) | > 100 µM (inactive) | > 100 µM (inactive) | > 100 µM (inactive) | > 100 µM (inactive) | > 100 µM (inactive) | > 100 µM (inactive) | > 100 µM (inactive) | > 100 µM (inactive) | – | – | – |
| Cc1[nH]nc(C(=O)N/N=C/c2cccs2)c1/N=N\N(C)C | 11.1 µM (inactive) | – | 34.5 µM (inactive) | 3.9 µM (inactive) | 20.1 µM (inactive) | 3.75 µM (inactive) | 15.3 µM (inactive) | 23.9 µM (inactive) | 29.7 µM (inactive) | – | 35.2 µM (inactive) | 11.6 µM (inactive) | 8.38 µM (inactive) | 26.7 µM (inactive) | 15.2 µM (inactive) | 24.1 µM (inactive) | 3.31 µM (inactive) | 3.43 µM (inactive) | 23.1 µM (inactive) | – |
| CC(C)=CCC[C@@H](C)c1c2nc3ccccc3sc-2c(C)c(=O)c1O | 3.44 µM (inactive) | 2.23 µM (inactive) | 9.66 µM (inactive) | 8.22 µM (inactive) | 8.34 µM (inactive) | 2.32 µM (inactive) | 4.86 µM (inactive) | 10.6 µM (inactive) | 16.7 µM (inactive) | 14.6 µM (inactive) | 9.71 µM (inactive) | 2.94 µM (inactive) | 38.5 µM (inactive) | 14.3 µM (inactive) | 3.78 µM (inactive) | 4.6 µM (inactive) | 2.79 µM (inactive) | 2.22 µM (inactive) | 3.74 µM (inactive) | – |
| NC1=NN(c2ccccc2)C(=O)C1C(=O)C(=O)Nc1ccc(Cl)c(Cl)c1 (centres undefined) | > 100 µM (inactive) | > 100 µM (inactive) | – | 32 µM (inactive) | – | > 100 µM (inactive) | > 100 µM (inactive) | – | > 100 µM (inactive) | > 100 µM (inactive) | > 100 µM (inactive) | > 100 µM (inactive) | 1.06 µM (active) | > 100 µM (inactive) | > 100 µM (inactive) | > 100 µM (inactive) | > 100 µM (inactive) | > 100 µM (inactive) | > 100 µM (inactive) | – |
| CCOC(=O)[C@@]1(C)CC(O)C(=O)N1C (some centres undefined) | > 100 µM (inactive) | > 100 µM (inactive) | > 100 µM (inactive) | – | > 100 µM (inactive) | > 100 µM (inactive) | > 100 µM (inactive) | > 100 µM (inactive) | > 100 µM (inactive) | > 100 µM (inactive) | > 100 µM (inactive) | > 100 µM (inactive) | > 100 µM (inactive) | > 100 µM (inactive) | > 100 µM (inactive) | > 100 µM (inactive) | > 100 µM (inactive) | – | > 100 µM (inactive) | – |
| Cc1cn([C@@H]2C[C@H]2CO)c(=O)[nH]c1=O | > 100 µM (inactive) | > 100 µM (inactive) | – | > 100 µM (inactive) | > 100 µM (inactive) | > 100 µM (inactive) | > 100 µM (inactive) | > 100 µM (inactive) | > 100 µM (inactive) | > 100 µM (inactive) | > 100 µM (inactive) | > 100 µM (inactive) | > 100 µM (inactive) | > 100 µM (inactive) | – | > 100 µM (inactive) | > 100 µM (inactive) | > 100 µM (inactive) | > 100 µM (inactive) | > 100 µM (inactive) |
| Cc1c2ccccc2c(=O)n2c(-c3ccccn3)cccc12 | > 100 µM (inactive) | 54 µM (inactive) | – | > 100 µM (inactive) | – | 79.8 µM (inactive) | > 100 µM (inactive) | – | > 10 µM (inactive) | > 100 µM (inactive) | > 100 µM (inactive) | > 100 µM (inactive) | > 100 µM (inactive) | 94.8 µM (inactive) | > 100 µM (inactive) | > 100 µM (inactive) | > 100 µM (inactive) | > 100 µM (inactive) | > 100 µM (inactive) | – |
| COc1ccc(C(=O)N(C(=S)OCCOc2ccccc2)c2ccccc2)cc1 | > 100 µM (inactive) | – | 65.2 µM (inactive) | 23.8 µM (inactive) | 35.4 µM (inactive) | 19.7 µM (inactive) | 50 µM (inactive) | 31.7 µM (inactive) | 88.3 µM (inactive) | > 100 µM (inactive) | 22.9 µM (inactive) | 52.2 µM (inactive) | 83.8 µM (inactive) | 34.8 µM (inactive) | 29.2 µM (inactive) | 31.3 µM (inactive) | 40.4 µM (inactive) | 34.1 µM (inactive) | – | 35.1 µM (inactive) |
| C=CCC1C(=O)CC2(C)C(CC=C)C(=O)CC12C (centres undefined) | > 100 µM (inactive) | > 100 µM (inactive) | – | > 100 µM (inactive) | – | > 100 µM (inactive) | > 100 µM (inactive) | – | > 100 µM (inactive) | > 100 µM (inactive) | > 100 µM (inactive) | > 100 µM (inactive) | > 100 µM (inactive) | > 100 µM (inactive) | > 100 µM (inactive) | > 100 µM (inactive) | > 100 µM (inactive) | > 100 µM (inactive) | > 100 µM (inactive) | – |
| O=c1n(-c2ccccc2)c(=O)n2c(-c3ccccc3)c(-c3ccccc3)n12 | > 100 µM (inactive) | 27 µM (inactive) | > 100 µM (inactive) | 80.9 µM (inactive) | 77.8 µM (inactive) | 37.4 µM (inactive) | > 100 µM (inactive) | – | > 100 µM (inactive) | > 100 µM (inactive) | > 100 µM (inactive) | > 100 µM (inactive) | > 100 µM (inactive) | > 100 µM (inactive) | 84.1 µM (inactive) | > 100 µM (inactive) | 70.1 µM (inactive) | 91 µM (inactive) | > 100 µM (inactive) | > 100 µM (inactive) |
| O=c1[nH]nc(Nc2ccccc2)c2nnn(C3CCCCC3)c12 | – | > 100 µM (inactive) | – | > 100 µM (inactive) | > 100 µM (inactive) | > 100 µM (inactive) | – | > 100 µM (inactive) | > 100 µM (inactive) | > 100 µM (inactive) | > 100 µM (inactive) | > 100 µM (inactive) | > 100 µM (inactive) | > 100 µM (inactive) | > 100 µM (inactive) | > 100 µM (inactive) | > 100 µM (inactive) | > 100 µM (inactive) | – | > 100 µM (inactive) |
| O=C(CN1CCOCC1)Nc1ccc2c(c1)C1Oc3ccccc3CC1CO2 (centres undefined) | > 100 µM (inactive) | > 100 µM (inactive) | – | > 100 µM (inactive) | > 100 µM (inactive) | 88.1 µM (inactive) | > 100 µM (inactive) | > 100 µM (inactive) | > 100 µM (inactive) | – | > 100 µM (inactive) | > 100 µM (inactive) | > 100 µM (inactive) | > 100 µM (inactive) | > 100 µM (inactive) | > 100 µM (inactive) | > 100 µM (inactive) | – | > 100 µM (inactive) | > 100 µM (inactive) |
| Oc1c(/N=N/c2ccccc2)c2ccccc2c2ccc3ccccc3c12 | > 100 µM (inactive) | 17.9 µM (inactive) | 62.8 µM (inactive) | 35.3 µM (inactive) | 73.8 µM (inactive) | 40.6 µM (inactive) | > 100 µM (inactive) | > 100 µM (inactive) | > 100 µM (inactive) | > 100 µM (inactive) | > 100 µM (inactive) | 76.6 µM (inactive) | > 100 µM (inactive) | > 100 µM (inactive) | 50.5 µM (inactive) | > 100 µM (inactive) | > 100 µM (inactive) | > 100 µM (inactive) | > 100 µM (inactive) | – |
| C[Si](C)(OCCS(=O)(=O)O)OC(=C1S(=O)(=O)OCCOS1(=O)=O)c1cccc2ccccc12 | 72.9 µM (inactive) | > 100 µM (inactive) | – | 84.5 µM (inactive) | > 100 µM (inactive) | > 100 µM (inactive) | > 100 µM (inactive) | > 100 µM (inactive) | > 100 µM (inactive) | > 100 µM (inactive) | > 100 µM (inactive) | > 100 µM (inactive) | > 100 µM (inactive) | > 100 µM (inactive) | > 100 µM (inactive) | > 100 µM (inactive) | > 100 µM (inactive) | > 100 µM (inactive) | > 100 µM (inactive) | > 100 µM (inactive) |
| CC(C)(C)OC(=O)N(CCCN)CCCCN(CCCN)C(=O)OC(C)(C)C | > 100 µM (inactive) | > 100 µM (inactive) | > 100 µM (inactive) | > 100 µM (inactive) | > 100 µM (inactive) | > 100 µM (inactive) | > 100 µM (inactive) | > 100 µM (inactive) | > 100 µM (inactive) | > 100 µM (inactive) | > 100 µM (inactive) | > 100 µM (inactive) | > 100 µM (inactive) | > 100 µM (inactive) | > 100 µM (inactive) | > 100 µM (inactive) | > 100 µM (inactive) | > 100 µM (inactive) | > 100 µM (inactive) | – |
| Cc1cc2c(ccc3c(C)cc(=O)oc32)o1 | > 100 µM (inactive) | > 100 µM (inactive) | – | > 100 µM (inactive) | – | > 100 µM (inactive) | > 100 µM (inactive) | – | > 100 µM (inactive) | > 100 µM (inactive) | > 100 µM (inactive) | > 100 µM (inactive) | > 100 µM (inactive) | > 100 µM (inactive) | > 100 µM (inactive) | > 100 µM (inactive) | > 100 µM (inactive) | > 100 µM (inactive) | > 100 µM (inactive) | – |
